# Reference: article PMC7617969, “Carboxylic Acid Bioisosteres Boost Nurr1 Agonist Selectivity” (Journal of medicinal chemistry, 2025)
# Several values for one entry are separate records, joined by “and”; a condition that tells them apart may be missing. Equal entries are not always repeated. Where two headings read alike, the source gives them in different places.
# Columns and labels:
# Nurr1 [1] = molecular target: T1, Nurr1 (Homo sapiens, UniProt P43354); experiment: Gal4-Nurr1 hybrid reporter gene assay; type: cell-based; settings: for EC50 / max. activation (Nurr1): Gal4-Nurr1 hybrid reporter gene assay; for EC50: HEK293T cells, mean ± S.E.M., n ≥ 3; for max. activation (Nurr1): fold activation vs untreated control; for selectivity index DHODH/Nurr1: IC50(DHODH) / EC50(Nurr1); for efficacy_NR4A2: supplementary csv, max. activation in %
# T1 construct: expressed in transfected cells; host or cells: HEK293T
# T1 sequence (P43354 360-595 limits assumed): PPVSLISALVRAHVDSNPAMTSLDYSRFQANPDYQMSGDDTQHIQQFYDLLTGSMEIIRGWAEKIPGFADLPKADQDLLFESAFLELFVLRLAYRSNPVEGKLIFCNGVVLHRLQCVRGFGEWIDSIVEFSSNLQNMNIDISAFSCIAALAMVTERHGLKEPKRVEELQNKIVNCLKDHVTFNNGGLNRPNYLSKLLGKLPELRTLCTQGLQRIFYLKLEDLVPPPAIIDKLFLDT
# DHODH [2] = molecular target: T2, DHODH (Homo sapiens, UniProt Q02127); experiment: DHODH inhibition colorimetric assay on recombinant human protein; type: biochemical
# T2 construct: using an N-terminally truncated recombinant DHODH enzyme as described previously[20]
# T2 sequence (Q02127 31-395): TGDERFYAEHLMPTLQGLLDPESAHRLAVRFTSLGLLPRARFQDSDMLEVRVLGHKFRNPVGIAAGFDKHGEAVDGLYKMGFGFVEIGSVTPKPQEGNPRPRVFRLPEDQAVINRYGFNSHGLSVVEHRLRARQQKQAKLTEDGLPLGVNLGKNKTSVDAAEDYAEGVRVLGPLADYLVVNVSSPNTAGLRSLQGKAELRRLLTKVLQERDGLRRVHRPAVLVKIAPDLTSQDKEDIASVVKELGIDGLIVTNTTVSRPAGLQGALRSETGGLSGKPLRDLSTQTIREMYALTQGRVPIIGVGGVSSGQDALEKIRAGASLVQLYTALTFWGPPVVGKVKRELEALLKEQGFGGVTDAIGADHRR
# Nurr1 [3] = molecular target: T1, Nurr1; settings: cited from earlier work; for efficacy_NR4A2: supplementary csv
# DHODH [4] = molecular target: T2, DHODH; settings: recombinant human DHODH; cited from earlier work
# [5] = recombinant human DHODH, colorimetric, mean ± S.E.M., n ≥ 3, read-out: IC50 (DHODH)
# [6] = Gal4-Nurr1 hybrid reporter gene assay
Structure (SMILES),Nurr1 preference/selectivity over DHODH (Nurr1 [1]) [fold],EC50 (Nurr1 [1]) [µM],max. activation (Nurr1) (Nurr1 [1]) [fold],selectivity index DHODH/Nurr1 (Nurr1 [1]),efficacy_NR4A2 (Nurr1 [1]) [%],IC50 (DHODH [2]; [5]) [µM],inhibition at 100 µM (DHODH [2]; recombinant human DHODH) [%],"IC50 (DHODH [2]; supplementary csv, read-out: IC50_DHODH) [µM]",max. activation (Nurr1) (Nurr1 [3]; [6]) [fold],efficacy_NR4A2 (Nurr1 [3]) [%],EC50 (Nurr1 [3]; [6]) [µM],IC50 (DHODH [4])
"[2H]C([2H])([2H])Oc1cccc(-c2c(F)c(F)c(NC(=O)C3=C(c4nn[nH]n4)COC3)c(F)c2F)c1 [compound 30, N-{2,3,5,6-Tetrafluoro-3’-(^2H3)methoxy-[1,1'-biphenyl]-4-yl}-4-(2H-tetrazol-5-yl)-2,5-dihydrofuran-3-carboxamide]",14,0.22,2.0±0.2,13.6,200,3 ± 1,–,–,–,–,–,–
"[2H]C([2H])([2H])Oc1cccc(-c2c(F)c(F)c(NC(=O)c3ccsc3-c3nn[nH]n3)c(F)c2F)c1 [compound 19, N-{2,3,5,6-Tetrafluoro-3’-(^2H3)methoxy-[1,1'-biphenyl]-4-yl}-2-(2H-tetrazol-5-yl)thiophene-3-carboxamide]",–,0.021 ± 0.002,2.14 ± 0.11,28,214,0.6 ± 0.2,–,–,–,–,–,–
"[2H]C([2H])([2H])Oc1cccc(-c2c(F)c(F)c(NC(=O)c3ccsc3S(=O)(=O)NC(C)=O)c(F)c2F)c1 [compound 14, 2-(N-Acetylsulfamoyl)-N-{2,3,5,6-tetrafluoro-3’-(^2H3)methoxy-[1,1'-biphenyl]-4-yl}thiophene-3-carboxamide]",–,0.9 ± 0.1,1.89 ± 0.06,4.4,189,4 ± 1,–,–,–,–,–,–
[2H]C([2H])([2H])Oc1cccc(-c2c(F)c(F)c(NC(=O)C3=C(C(=O)O)CCC3)c(F)c2F)c1 [compound 10],–,–,–,–,–,–,–,–,1.9±0.1,188,–,–
"[2H]C([2H])([2H])Oc1cccc(-c2c(F)c(F)c(NC(=O)c3ccsc3S(N)(=O)=O)c(F)c2F)c1 [compound 13, Sulfamoyl-N-{2,3,5,6-tetrafluoro-3'-(^2H3)methoxy-[1,1'-biphenyl]-4-yl}thiophene-3-carboxamide]",–,1.1 ± 0.1,2.09 ± 0.08,3.0,209,3.33 ± 0.06,–,3.3,–,–,–,–
"[2H]C([2H])([2H])Oc1cccc(-c2c(F)c(F)c(NC(=O)c3ccsc3-c3c(O)c(=O)c3=O)c(F)c2F)c1 [compound 17, 2-(2-Hydroxy-3,4-dioxocyclobut-1-en-1-yl)-N-{2,3,5,6-tetrafluoro-3’-(^2H3)methoxy-[1,1'-biphenyl]-4-yl}thiophene-3-carboxamide]",–,0.1 ± 0.05,1.97 ± 0.43,7,197,0.7 ± 0.5,–,–,–,–,–,–
"[2H]C([2H])([2H])Oc1cccc(-c2c(F)c(F)c(NC(=O)c3ccccc3-c3nn[nH]n3)c(F)c2F)c1 [compound 31, N-{2,3,5,6-Tetrafluoro-3’-(^2H3)methoxy-[1,1'-biphenyl]-4-yl}-2-(2H-tetrazol-5-yl)benzamide]",–,0.14 ± 0.01,1.9±0.1,1.9,190,0.26 ± 0.04,–,–,–,–,–,–
"[2H]C([2H])([2H])Oc1cccc(-c2c(F)c(F)c(NC(=O)c3ccsc3S(C)(=O)=O)c(F)c2F)c1 [compound 15, 2-(Methylsulfonyl)-N-{2,3,5,6-tetrafluoro-3’-(^2H3)methoxy-[1,1'-biphenyl]-4-yl}thiophene-3-carboxamide]",–,1.2 ± 0.1,2.05 ± 0.08,~100,205,–,49 ± 1,–,–,–,–,–
[2H]C([2H])([2H])Oc1cccc(-c2cc(F)c(NC(=O)C3=C(c4noc(=O)[nH]4)CCC3)c(F)c2)c1 [compound 8],–,–,–,9,–,–,–,–,2.0±0.1,200,1 ± 0.1,9.26 µM and 9 µM
[2H]C([2H])([2H])Oc1cccc(-c2c(F)c(F)c(NC(=O)C3=C(C(=O)O)COC3)c(F)c2F)c1 [compound 29],–,–,2.5±0.1,–,250,–,–,–,–,–,–,–

# The next lines start with results.
Nurr1 preference/selectivity over DHODH (Nurr1 [1]) [fold],EC50 (Nurr1 [1]) [µM],max. activation (Nurr1) (Nurr1 [1]) [fold],selectivity index DHODH/Nurr1 (Nurr1 [1]),efficacy_NR4A2 (Nurr1 [1]) [%],IC50 (DHODH [2]; [5]) [µM],inhibition at 100 µM (DHODH [2]; recombinant human DHODH) [%],"IC50 (DHODH [2]; supplementary csv, read-out: IC50_DHODH) [µM]",Structure (SMILES),max. activation (Nurr1) (Nurr1 [3]; [6]) [fold],efficacy_NR4A2 (Nurr1 [3]) [%],EC50 (Nurr1 [3]; [6]) [µM],IC50 (DHODH [4])
–,0.03 ± 0.01,2.2±0.1,13,220,0.4 ± 0.06,–,–,"[2H]C([2H])([2H])Oc1cccc(-c2c(F)c(F)c(NC(=O)c3cscc3-c3noc(=O)[nH]3)c(F)c2F)c1 [compound 21, 4-(5-Oxo-4,5-dihydro-1,2,4-oxadiazol-3-yl)-N-{2,3,5,6-tetrafluoro-3’-(^2H3)methoxy-[1,1'-biphenyl]-4-yl}thiophene-3-carboxamide]",–,–,–,–
–,1.2 ± 0.2,2.17 ± 0.11,~25,217,–,76 ± 6,–,"[2H]C([2H])([2H])Oc1cccc(-c2c(F)c(F)c(NC(=O)c3ccsc3S(C)(=N)=O)c(F)c2F)c1 (stereo not drawn) [compound 16, 2-(S-Methylsulfonimidoyl)-N-{2,3,5,6-tetrafluoro-3’-(^2H3)methoxy-[1,1'-biphenyl]-4-yl}thiophene-3-carboxamide]",–,–,–,–
–,0.017 ± 0.002,1.8±0.1,5.9,180,0.1 ± 0.01,–,–,"[2H]C([2H])([2H])Oc1cccc(-c2c(F)c(F)c(NC(=O)c3cscc3-c3n[nH]c(=O)o3)c(F)c2F)c1 [compound 26, 4-(5-Oxo-4,5-dihydro-1,3,4-oxadiazol-2-yl)-N-{2,3,5,6-tetrafluoro-3’-(^2H3)methoxy-[1,1'-biphenyl]-4-yl}thiophene-3-carboxamide]",–,–,–,–
–,2.6 ± 0.3,1.9±0.2,4.2,190,11.1 ± 0.6,–,–,"[2H]C([2H])([2H])Oc1cccc(-c2c(F)c(F)c(NC(=O)c3cscc3-c3nc(=O)on3C)c(F)c2F)c1 [compound 24, 4-(2-Methyl-5-oxo-2,5-dihydro-1,2,4-oxadiazol-3-yl)-N-{2,3,5,6-tetrafluoro-3’-(^2H3)methoxy-[1,1'-biphenyl]-4-yl}thiophene-3-carboxamide]",–,–,–,–
–,0.16 ± 0.05,1.7±0.1,6.0,170,0.96 ± 0.09,–,–,"[2H]C([2H])([2H])Oc1cccc(-c2c(F)c(F)c(NC(=O)c3cscc3-c3n[nH]c(=S)o3)c(F)c2F)c1 [compound 27, N-(2,3,5,6-Tetrafluoro-3’-(^2H3)methoxy-[1,1'-biphenyl]-4-yl)-4-{5-thioxo-4,5-dihydro-1,3,4-oxadiazol-2-yl}thiophene-3-carboxamide]",–,–,–,–
–,0.011 ± 0.002,2.5±0.2,3.9,250,0.043 ± 0.006,–,–,"[2H]C([2H])([2H])Oc1cccc(-c2c(F)c(F)c(NC(=O)c3cscc3-c3nn[nH]n3)c(F)c2F)c1 [compound 22, N-{2,3,5,6-Tetrafluoro-3’-(^2H3)methoxy-[1,1'-biphenyl]-4-yl}-4-(2H-tetrazol-5-yl)thiophene-3-carboxamide]",–,–,–,–
–,0.036 ± 0.003,1.77±0.04,1.7,177,0.062 ± 0.004,–,–,"[2H]C([2H])([2H])Oc1cccc(-c2c(F)c(F)c(NC(=O)c3cscc3-c3noc(=S)[nH]3)c(F)c2F)c1 [compound 23, N-{2,3,5,6-Tetrafluoro-3’-(^2H3)methoxy-[1,1'-biphenyl]-4-yl}-4-(5-thioxo-4,5-dihydro-1,2,4-oxadiazol-3-yl)thiophene-carboxamide]",–,–,–,–
–,0.9 ± 0.1,2.3±0.2,>100,230,–,40 ± 8,–,"[2H]C([2H])([2H])Oc1cccc(-c2c(F)c(F)c(NC(=O)c3cscc3-c3nc(=S)on3C)c(F)c2F)c1 [compound 25, 4-(2-Methyl-5-thioxo-2,5-dihydro-1,2,4-oxadiazol-3-yl)-N-{2,3,5,6-tetrafluoro-3’-(^2H3)methoxy-[1,1'-biphenyl]-4-yl}thiophene-3-carboxamide]",–,–,–,–
–,0.05 ± 0.01,1.86 ± 0.11,13,186,0.66 ± 0.08,–,–,"[2H]C([2H])([2H])Oc1cccc(-c2c(F)c(F)c(NC(=O)c3ccsc3-c3noc(=O)[nH]3)c(F)c2F)c1 [compound 18, 2-(5-Oxo-4,5-dihydro-1,2,4-oxadiazol-3-yl)-N-{2,3,5,6-tetrafluoro-3’-(^2H3)methoxy-[1,1'-biphenyl]-4-yl}thiophene-3-carboxamide]",–,–,–,–
–,0.039 ± 0.005,2.4±0.1,30,240,1.2 ± 0.2,–,–,"[2H]C([2H])([2H])Oc1cccc(-c2c(F)c(F)c(NC(=O)c3cscc3C3=NOS(=O)N3)c(F)c2F)c1 (stereo not drawn) [compound 28, 4-(2-Oxido-3H-1,2,3,5-oxathiadiazol-4-yl)-N-{2,3,5,6-tetrafluoro-3’-(^2H3)methoxy-[1,1'-biphenyl]-4-yl}thiophene-3-carboxamide]",–,–,–,–
